Results as given in US10597388B2, “Pyridazinone herbicides” (FMC CORPORATION, priority 2014, dated 2020).

Columns and labels:
Format in all cases: in vivo
[1] = system: kochia (Kochia scoparia); experiment: Test C greenhouse herbicide test, postemergence
In short: (§1)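 Test chemicals were applied postemergence to greenhouse plants at the 1- to 4-leaf stage (2–18 cm tall) growing in peat/vermiculite medium. After 13–15 d, injury was rated visually against untreated controls on a 0–100 scale (0 = no effect, 100 = complete control).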

[2] = system: oat, wild (wild oat, Avena fatua); experiment: Test C greenhouse herbicide test, postemergence
In short: as §1

[3] = system: kochia (Kochia scoparia); experiment: Test A greenhouse herbicide test, pre- and postemergence
In short: (§2)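 Seeds sown in loam–sand blend got a preemergence directed soil spray of compound in non-phytotoxic solvent with surfactant. Postemergence treatment was given at 2–10 cm, one- to two-leaf stage. After ~10 d in greenhouse, injury was rated visually vs untreated controls, 0 (no effect) to 100 (complete control).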

[4] = system: ragweed (common ragweed, Ambrosia elatior); experiment: as above
In short: as §2

[5] = system: corn (Zea mays); experiment: as above; settings: Postemergence
In short: as §2

[6] = system: foxtail, giant (giant foxtail, Setaria faberii); experiment: as above
In short: as §2

[7] = system: barnyardgrass (Echinochloa crus-galli); experiment: as above
In short: as §2

[8] = system: ducksalad (Heteranthera limosa); experiment: Test B flooded paddy test; settings: 250 g ai/ha, Flood; visual rating on scale of 0 to 100 where 0 is no effect and 100 is complete control; 13 to 15 d after treatment
In short: (§3)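 Plants at the 2-leaf stage were flooded to 3 cm above soil, and test compounds were applied directly into the paddy water, which was held at that depth throughout. After 13 to 15 d in a greenhouse, injury was rated visually against untreated controls on a 0–100 scale (0 no effect, 100 complete control).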

[9] = system: rice (Oryza sativa); experiment: Test B flooded paddy test; settings: 250 g ai/ha, Flood; visual rating on scale of 0 to 100 where 0 is no effect and 100 is complete control; 13 to 15 d after treatment
In short: as §3

[10] = system: sedge, umbrella (small-flower umbrella sedge, Cyperus difformis); experiment: Test B flooded paddy test; settings: 250 g ai/ha, Flood; visual rating on scale of 0 to 100 where 0 is no effect and 100 is complete control; 13 to 15 d after treatment
In short: as §3

[11] = system: barnyardgrass (Echinochloa crus-galli); experiment: Test B flooded paddy test; settings: 250 g ai/ha, Flood; visual rating on scale of 0 to 100 where 0 is no effect and 100 is complete control; 13 to 15 d after treatment
In short: as §3

[12] = Postemergence, 31 g ai/ha, scale 0 to 100 (0 no effect, 100 complete control)
[13] = Postemergence, 62 g ai/ha, 0 to 100 scale (0 no effect, 100 complete control)
[14] = Postemergence, 250 g ai/ha, scale 0 to 100, 0 no effect, 100 complete control, 13 to 15 d
[15] = postemergence, 125 g ai/ha, scale 0 to 100, 0 no effect, 100 complete control
[16] = Postemergence, 125 g ai/ha, 0 to 100 scale where 0 is no effect and 100 is complete control
[17] = Postemergence, 500 g ai/ha, visual rating after approx. 10 d, 0 to 100 scale (0 no effect, 100 complete control)
[18] = Preemergence, 125 g ai/ha, 0 to 100 scale where 0 is no effect and 100 is complete control
[19] = Preemergence, 500 g ai/ha, 0 to 100 scale where 0 is no effect and 100 is complete control
[20] = 125 g ai/ha, 0 to 100 scale where 0 is no effect and 100 is complete control
[21] = 500 g ai/ha, visual rating after approx. 10 d, 0 to 100 scale (0 no effect, 100 complete control)
[22] = Postemergence, 8 g ai/ha, scale 0 to 100 (0 no effect, 100 complete control)
[23] = Postemergence, 16 g ai/ha, scale 0 to 100 (0 no effect, 100 complete control)

Row | Compound | Plant response rating, Kochia [1, 12] | Plant response rating, Oat, Wild [2, 12] | Plant response rating, Kochia [3, 16] | Plant response rating, Kochia [3, 17] | Kochia plant response rating [3, 18] | Plant response rating, Kochia [3, 19] | Plant response rating, Ragweed [4, 16] | Plant response rating, Ragweed [4, 17] | Plant response rating, Ragweed [4, 19] | Plant response rating, Corn [5, 20] | Plant response rating, Corn [5, 21] | Plant response rating, Foxtail, Giant [6, 16] | Plant response rating, Foxtail, Giant [6, 17] | Foxtail, Giant plant response rating [6, 18] | Plant response rating, Foxtail, Giant [6, 19] | Plant response rating, Barnyardgrass [7, 16] | Plant response rating, Barnyardgrass [7, 17] | Barnyardgrass plant response rating [7, 18] | Plant response rating, Barnyardgrass [7, 19] | Plant response rating, Ducksalad [8] | other results
1 | CCC(=O)Oc1c(C)nn(C)c(=O)c1-c1ccc(Br)c2ccccc12 [Compound 134] | 95 | 90 | 100 | 100 | 70 | 100 | 100 | 100 | 90 | 20 | 50 | 20 | 80 | 50 | 90 | 20 | 60 | 20 | 90 | 0 | Kochia plant response rating [1, 13]: 100; Plant response rating, Kochia [1, 14]: 100; Kochia plant response rating [1, 15]: 100; Oat, Wild plant response rating [2, 13]: 90; Plant response rating, Oat, Wild [2, 14]: 95; Oat, Wild plant response rating [2, 15]: 95; Ragweed plant response rating [4, 18]: 80; Plant response rating, Rice [9]: 0; Plant response rating, Sedge, Umbrella [10]: 0; Plant response rating, Barnyardgrass [11]: 0
2 | COC(=O)Oc1c(OC)nn(C)c(=O)c1-c1c(C)ccc2ccccc12 [Compound 136] | 95 | 50 | 100 | 100 | 60 | 90 | 100 | 100 | 90 | 30 | 30 | 90 | 100 | 80 | 100 | 20 | 100 | 10 | 80 | 0 | Kochia plant response rating [1, 13]: 95; Plant response rating, Kochia [1, 14]: 100; Kochia plant response rating [1, 15]: 100; Oat, Wild plant response rating [2, 13]: 75; Plant response rating, Oat, Wild [2, 14]: 90; Oat, Wild plant response rating [2, 15]: 85; Ragweed plant response rating [4, 18]: 80; Plant response rating, Rice [9]: 0; Plant response rating, Sedge, Umbrella [10]: 0; Plant response rating, Barnyardgrass [11]: 0
3 | Cc1nn(C)c(=O)c(-c2ccc(Cl)c3ccccc23)c1O [Compound 139] | 95 | 90 | 100 | 100 | 100 | 100 | 100 | 100 | 100 | 30 | 40 | 70 | 100 | 60 | 100 | 20 | 100 | 20 | 100 | 0 | Kochia plant response rating [1, 13]: 100; Plant response rating, Kochia [1, 14]: 100; Kochia plant response rating [1, 15]: 100; Oat, Wild plant response rating [2, 13]: 90; Plant response rating, Oat, Wild [2, 14]: 90; Oat, Wild plant response rating [2, 15]: 90; Plant response rating, Rice [9]: 0; Plant response rating, Sedge, Umbrella [10]: 0; Plant response rating, Barnyardgrass [11]: 0
4 | Cc1ccc2ccc(Cl)cc2c1-c1c(O)c(C)nn(C)c1=O [Compound 144] | 98 | 90 | 100 | 100 | 100 | 100 | 100 | 100 | 100 | 60 | 90 | 100 | 100 | 100 | 100 | 100 | 100 | 90 | 100 | 40 | Kochia plant response rating [1, 22]: 90; Plant response rating, Kochia [1, 22]: 90; Plant response rating, Kochia [1, 23]: 98; Oat, Wild plant response rating [2, 22]: 80; Plant response rating, Oat, Wild [2, 22]: 90; Plant response rating, Oat, Wild [2, 23]: 90; Plant response rating, Rice [9]: 30; Plant response rating, Sedge, Umbrella [10]: 0; Plant response rating, Barnyardgrass [11]: 30
